# Reference: patent US9815796B2 (Merck Sharp & Dohme Corp., priority 2013, dated 2017)
# What was measured:
# [1] = biological target: human PDE2A1 (Homo sapiens (Human), UniProt O00408); assay: IMAP FP PDE selectivity panel, human PDE2A1; format: biochemical; details: Human PDE2, Lab B; read-out: Human PDE2 Ki (nM) - Lab B
# In short: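 GST-tagged human PDE2A1 expressed in insect cells, run at room temperature for 60 min with 50 nM FAM-cAMP containing 1000 nM cGMP, pH 7.2 Tris/MgCl2 buffer. IMAP fluorescence polarization read after binding step.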
# [2] = biological target: Rhesus PDE2A3 (Macaca mulatta, UniProt B3VTJ2); assay: PDE2 fluorescence polarization (IMAP FP) inhibition assay, rhesus enzyme; format: biochemical, rhesus macaque; details: Rhesus PDE2, Lab B; read-out: Rhesus PDE2 Ki (nM) - Lab B
# Chain of Rhesus PDE2A3 (B3VTJ2 1-941): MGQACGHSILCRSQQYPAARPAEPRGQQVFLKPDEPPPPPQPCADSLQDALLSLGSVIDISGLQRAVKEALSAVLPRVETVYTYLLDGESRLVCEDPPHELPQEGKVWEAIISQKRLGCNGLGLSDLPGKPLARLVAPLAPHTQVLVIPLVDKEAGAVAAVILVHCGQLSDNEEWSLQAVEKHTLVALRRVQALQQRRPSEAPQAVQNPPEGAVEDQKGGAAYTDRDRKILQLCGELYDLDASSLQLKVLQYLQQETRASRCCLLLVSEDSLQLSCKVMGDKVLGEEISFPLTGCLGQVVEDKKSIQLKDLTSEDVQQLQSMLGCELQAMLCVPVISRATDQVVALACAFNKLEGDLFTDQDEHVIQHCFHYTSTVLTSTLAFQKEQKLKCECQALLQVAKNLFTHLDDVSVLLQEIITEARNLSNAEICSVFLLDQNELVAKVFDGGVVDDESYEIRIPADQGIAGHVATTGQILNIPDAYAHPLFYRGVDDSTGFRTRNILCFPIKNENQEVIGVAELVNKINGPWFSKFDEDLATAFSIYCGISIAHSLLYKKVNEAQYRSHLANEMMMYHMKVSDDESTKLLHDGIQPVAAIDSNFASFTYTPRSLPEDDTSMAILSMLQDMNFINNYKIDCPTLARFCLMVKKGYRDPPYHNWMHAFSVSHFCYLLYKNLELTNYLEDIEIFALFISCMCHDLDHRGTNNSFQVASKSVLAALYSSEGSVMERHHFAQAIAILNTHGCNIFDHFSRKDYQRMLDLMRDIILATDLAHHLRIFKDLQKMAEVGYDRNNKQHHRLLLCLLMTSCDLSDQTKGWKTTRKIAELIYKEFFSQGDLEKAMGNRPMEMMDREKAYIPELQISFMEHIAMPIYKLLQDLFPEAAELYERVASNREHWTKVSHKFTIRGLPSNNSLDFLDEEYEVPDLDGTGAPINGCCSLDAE
# In short: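 Rhesus PDE2A3 came from lysate of transiently transfected AD293 cells, diluted to give 20% substrate conversion. Substrate was 50 nM FAM-cAMP with 1 uM cGMP activator in Tris pH 7.2/MgCl2 buffer, run 60 min at room temperature over 10-point 3-fold dilutions in 1% DMSO. Read-out was IMAP fluorescence polarization (mP) after ≥1 h binding.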
# Chain of human PDE2A1 (O00408 other isoform, or with tags, fused parts or gaps): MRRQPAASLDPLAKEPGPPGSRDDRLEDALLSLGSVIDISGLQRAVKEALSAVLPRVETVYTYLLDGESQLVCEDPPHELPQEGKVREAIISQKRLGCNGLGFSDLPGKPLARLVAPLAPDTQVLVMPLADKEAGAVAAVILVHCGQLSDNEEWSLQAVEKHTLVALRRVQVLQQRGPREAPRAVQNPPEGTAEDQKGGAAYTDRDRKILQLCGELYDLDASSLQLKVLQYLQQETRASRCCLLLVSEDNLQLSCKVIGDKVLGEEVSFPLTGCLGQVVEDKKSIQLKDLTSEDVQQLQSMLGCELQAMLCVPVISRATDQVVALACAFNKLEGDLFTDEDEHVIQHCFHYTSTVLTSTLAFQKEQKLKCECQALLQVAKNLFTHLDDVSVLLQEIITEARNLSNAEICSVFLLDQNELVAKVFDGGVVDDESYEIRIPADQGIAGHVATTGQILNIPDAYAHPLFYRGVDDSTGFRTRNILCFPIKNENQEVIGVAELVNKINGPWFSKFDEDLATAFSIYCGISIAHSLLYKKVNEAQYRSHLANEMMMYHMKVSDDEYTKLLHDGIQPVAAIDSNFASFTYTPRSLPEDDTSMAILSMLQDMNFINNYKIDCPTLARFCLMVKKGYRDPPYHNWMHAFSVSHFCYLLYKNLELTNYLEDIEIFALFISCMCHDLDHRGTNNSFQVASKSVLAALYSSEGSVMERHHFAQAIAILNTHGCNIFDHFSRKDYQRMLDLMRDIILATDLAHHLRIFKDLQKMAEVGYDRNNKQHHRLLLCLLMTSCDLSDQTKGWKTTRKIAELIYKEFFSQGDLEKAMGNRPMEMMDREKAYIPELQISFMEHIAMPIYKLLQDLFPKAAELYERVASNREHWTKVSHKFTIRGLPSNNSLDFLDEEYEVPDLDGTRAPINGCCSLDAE
SMILES,Ki [1],Ki [2]
"COc1ccc(Cc2nc(C(=O)N[C@@H](c3ccc(SC(F)(F)F)c(F)c3)C(C)C)cc(=O)[nH]2)cc1 [Example 470, N-[(1R)-1-{3-fluoro-4-[(trifluoromethyl)sulfanyl]phenyl}-2-methylpropyl]-2-(4-methoxybenzyl)-6-oxo-1,6-dihydropyrimidine-4-carboxamide]",1.3 nM,1.2 nM
"COc1ccc(Cc2nc(C(=O)N[C@@H](c3ccc(S(F)(F)(F)(F)F)cc3)C(C)C)cc(=O)[nH]2)cc1 [Example 471, 2-(4-methoxybenzyl)-N-[(1R)-2-methyl-1-[4-(pentafluoro-λ^6-sulfanyl)phenyl]propyl}-6-oxo-1,6-dihydropyrimidine-4-carboxamide]",1.5 nM,1.5 nM
"COc1ccc(Cc2nc(C(=O)N[C@@H](c3ccc(C(F)(F)F)c(F)c3)C(C)C)cc(=O)[nH]2)cc1 [Example 472, N-{(1R)-1-[3-fluoro-4-(trifluoromethyl)phenyl]-2-methylpropyl}-2-(4-methoxybenzyl)-6-oxo-1,6-dihydropyrimidine-4-carboxamide]",1.7 nM,1.6 nM
"COc1ccc(Cc2nc(C(=O)N[C@@H](c3ccc(OC(F)(F)F)c(F)c3)C3CC3)cc(=O)[nH]2)cc1 [Example 478, N-{(R)-cyclopropyl[3-fluoro-4-(trifluoromethoxy)phenyl]methyl}-2-(4-methoxybenzyl)-6-oxo-1,6-dihydropyrimidine-4-carboxamide]",1.7 nM,2.1 nM
"COc1ccc(Cc2nc(C(=O)N[C@@H](c3ccc(SC(F)(F)F)cc3)C3CC3)cc(=O)[nH]2)cc1 [Example 479, N-[(R)-cyclopropyl{4-[(trifluoromethyl)sulfanyl]phenyl}methyl]-2-(4-methoxybenzyl)-6-oxo-1,6-dihydropyrimidine-4-carboxamide]",2 nM,1.9 nM
"COc1ccc(C(C)(C)c2nc(C(=O)N[C@@H](c3ccc(C(F)(F)F)c(F)c3)C(C)C)cc(=O)[nH]2)cc1 [Example 486, N-{(1R)-1-[3-fluoro-4-(trifluoromethyl)phenyl]-2-methylpropyl}-2-[1-(4-methoxyphenyl)-1-methylethyl]-6-oxo-1,6-dihydropyrimidine-4-carboxamide]",46 nM,60 nM
"COc1ccc(C(C)(C)c2nc(C(=O)N[C@@H](c3ccc(OC(F)(F)F)c(F)c3)C(C)(C)C)cc(=O)[nH]2)cc1 [Example 487, N-{(1R)-1-[3-fluoro-4-(trifluoromethoxy)phenyl]-2,2-dimethylpropyl}-2-[1-(4-methoxyphenyl)-1-methylethyl]-6-oxo-1,6-dihydropyrimidine-4-carboxamide]",63 nM,61 nM
"COc1ccc(C(C)(C)c2nc(C(=O)N[C@@H](c3ccc(C(F)(F)F)c(F)c3)C(C)(C)C)cc(=O)[nH]2)cc1 [Example 489, N-{(1R)-1-[3-fluoro-4-(trifluoromethyl)phenyl]-2,2-dimethylpropyl}-2-[1-(4-methoxyphenyl)-1-methylethyl]-6-oxo-1,6-dihydropyrimidine-4-carboxamide]",61 nM,69 nM
"COc1ccc(C(C)(C)c2nc(C(=O)N[C@@H](c3ccc(SC(F)(F)F)cc3)C(C)C)cc(=O)[nH]2)cc1 [Example 490, 2-[1-(4-methoxyphenyl)-1-methylethyl]-N-[(1R)-2-methyl-1-{4-[(trifluoromethyl)sulfanyl]phenyl}propyl]-6-oxo-1,6-dihydropyrimidine-4-carboxamide]",31 nM,43 nM
"COc1ccc(C(C)(C)c2nc(C(=O)N[C@@H](c3ccc(SC(F)(F)F)c(F)c3)C(C)C)cc(=O)[nH]2)cc1 [Example 491, N-[(1R)-1-{3-fluoro-4-[(trifluoromethyl)sulfanoyl]phenyl}-2-methylpropyl]-2-[1-(4-methoxyphenyl)-1-methylethyl]-6-oxo-1,6-dihydropyrimidine-4-carboxamide]",27 nM,27 nM
"COc1ccc(C(C)(C)c2nc(C(=O)N[C@@H](c3ccc(OC(F)(F)F)c(F)c3)C(C)C)cc(=O)[nH]2)cc1 [Example 492, N-{(1R)-1-[3-fluoro-4-(trifluoromethoxy)phenyl]-2-methylpropyl}-2-[1-(4-methoxyphenyl)-1-methylethyl]-6-oxo-1,6-dihydropyrimidine-4-carboxamide]",29 nM,42 nM
"COc1ccc(C(C)(C)c2nc(C(=O)N[C@@H](c3ccc(C(F)(F)F)cc3)C(C)C)cc(=O)[nH]2)cc1 [Example 493, 2-[1-(4-methoxyphenyl)-1-methylethyl]-N-{(1R)-2-methyl-1-[4-(trifluoromethyl)phenyl]propyl}-6-oxo-1,6-dihydropyrimidine-4-carboxamide]",62 nM,77 nM
"COc1ccc(C(C)(C)c2nc(C(=O)N[C@@H](c3ccc(OC(F)(F)F)cc3)C(C)C)cc(=O)[nH]2)cc1 [Example 494, 2-[1-(4-methoxyphenyl)-1-methylethyl]-N-{(1R)-2-methyl-1-[4-(trifluoromethoxy)phenyl]propyl}-6-oxo-1,6-dihydropyrimidine-4-carboxamide]",46 nM,54 nM
"CC[C@@H](NC(=O)c1cc(=O)[nH]c(C(C)(C)c2ccc(OC)cc2)n1)c1ccc(SC(F)(F)F)cc1 [Example 495, 2-[1-(4-methoxyphenyl)-1-methylethyl]-6-oxo-N-[(1R)-1-{4-[(trifluoromethyl)sulfanyl]phenyl}propyl]-1,6-dihydropyrimidine-4-carboxamide]",45 nM,54 nM

# More lines, now with the values ahead:
Ki [1],Ki [2],SMILES
0.91 nM,0.96 nM,"COc1ccc(Cc2nc(C(=O)N[C@@H](c3ccc(SC(F)(F)F)cc3)C(C)C)cc(=O)[nH]2)cc1 [Example 469, 2-(4-methoxybenzyl)-N-[(1R)-2-methyl-1-{4-[(trifluoromethyl)sulfanyl]phenyl}propyl]-6-oxo-1,6-dihydropyrimidine-4-carboxamide]"
0.86 nM,1.1 nM,"COc1ccc(Cc2nc(C(=O)N[C@@H](c3ccc(OC(F)(F)F)c(F)c3)C(C)C)cc(=O)[nH]2)cc1 [Example 473, N-{(1R)-1-[3-fluoro-4-(trifluoromethoxy)phenyl]-2-methylpropyl}-2-(4-methoxybenzyl)-6-oxo-1,6-dihydropyrimidine-4-carboxamide]"
1.5 nM,1.4 nM,"COc1ccc(Cc2nc(C(=O)N[C@@H](c3ccc(C(F)(F)F)cc3)C(C)C)cc(=O)[nH]2)cc1 [Example 474, 2-(4-methoxybenzyl)-N-{(1R)-2-methyl-1-[4-(trifluoromethyl)phenyl]propyl}-6-oxo-1,6-dihydropyrimidine-4-carboxamide]"
1.3 nM,1.3 nM,"COc1ccc(Cc2nc(C(=O)N[C@@H](c3ccc(OC(F)(F)F)cc3)C(C)C)cc(=O)[nH]2)cc1 [Example 475, 2-(4-methoxybenzyl)-N-{(1R)-2-methyl-1-[4-(trifluoromethoxy)phenyl]propyl}-6-oxo-1,6-dihydropyrimidine-4-carboxamide]"
1.8 nM,1.4 nM,"CC[C@@H](NC(=O)c1cc(=O)[nH]c(Cc2ccc(OC)cc2)n1)c1ccc(SC(F)(F)F)cc1 [Example 476, 2-(4-methoxybenzyl)-6-oxo-N-[(1R)-1-{4-[(trifluoromethyl)sulfanyl]phenyl}propyl]-1,6-dihydropyrimidine-4-carboxamide]"
1.7 nM,1.5 nM,"CC[C@@H](NC(=O)c1cc(=O)[nH]c(Cc2ccc(OC)cc2)n1)c1ccc(SC(F)(F)F)c(F)c1 [Example 477, N-[(1R)-1-{3-fluoro-4-[(trifluoromethyl)sulfanyl]phenyl}propyl]-2-(4-methoxybenzyl)-6-oxo-1,6-dihydropyrimidine-4-carboxamide]"
1.9 nM,1.9 nM,"COc1ccc(Cc2nc(C(=O)N[C@@H](c3ccc(OC(F)(F)F)cc3)C3CC3)cc(=O)[nH]2)cc1 [Example 480, N-{(R)-cyclopropyl[4-(trifluoromethoxy)phenyl]methyl}-2-(4-methoxybenzyl)-6-oxo-1,6-dihydropyrimidine-4-carboxamide]"
1.9 nM,1.9 nM,"COc1ccc(Cc2nc(C(=O)N[C@@H](c3ccc(C(F)(F)F)cc3)C3CC3)cc(=O)[nH]2)cc1 [Example 481, N-{(R)-cyclopropyl[4-(trifluoromethyl)phenyl]methyl}-2-(4-methoxybenzyl)-6-oxo-1,6-dihydropyrimidine-4-carboxamide]"
3.4 nM,3.3 nM,"CC[C@@H](NC(=O)c1cc(=O)[nH]c(Cc2ccc(OC)cc2)n1)c1ccc(S(F)(F)(F)(F)F)cc1 [Example 482, 2-(4-methoxybenzyl)-6-oxo-N-{(1R)-1-[4-(pentafluoro-λ^6-sulfanyl)phenyl]propyl}-1,6-dihydropyrimidine-4-carboxamide]"
2.9 nM,3 nM,"CC[C@@H](NC(=O)c1cc(=O)[nH]c(Cc2ccc(OC)cc2)n1)c1ccc(C(F)(F)F)c(F)c1 [Example 483, N-{(1R)-1-[3-fluoro-4-(trifluoromethyl)phenyl]propyl}-2-(4-methoxybenzyl)-6-oxo-1,6-dihydropyrimidine-4-carboxamide]"
1.4 nM,1.3 nM,"CC[C@@H](NC(=O)c1cc(=O)[nH]c(Cc2ccc(OC)cc2)n1)c1ccc(OC(F)(F)F)c(F)c1 [Example 484, N-{(1R)-1-[3-fluoro-4-(trifluoromethoxy)phenyl]propyl}-2-(4-methoxybenzyl)-6-oxo-1,6-dihydropyrimidine-4-carboxamide]"
1.5 nM,1.9 nM,"CC[C@@H](NC(=O)c1cc(=O)[nH]c(Cc2ccc(OC)cc2)n1)c1ccc(OC(F)(F)F)cc1 [Example 485, 2-(4-methoxybenzyl)-6-oxo-N-{(1R)-1-[4-(trifluoromethoxy)phenyl]propyl}-1,6-dihydropyrimidine-4-carboxamide]"
